# Experimental data as given in patent US20040186273A1 (V.I. Technologies, Inc., priority 2000, published 2004).
# Molecular target: PrPc from normal brain homogenate (Mesocricetus auratus, UniProt P04273)
# Sequence (P04273 23-231 limits assumed): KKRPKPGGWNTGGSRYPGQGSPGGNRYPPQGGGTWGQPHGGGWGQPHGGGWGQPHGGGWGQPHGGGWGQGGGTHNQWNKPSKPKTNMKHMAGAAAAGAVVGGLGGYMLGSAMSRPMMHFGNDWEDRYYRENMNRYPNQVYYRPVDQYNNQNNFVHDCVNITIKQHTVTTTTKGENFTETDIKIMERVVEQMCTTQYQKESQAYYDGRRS
row,Substance,"PrPc bound to resin (chemiluminescence signal, +3F4 vs -3F4)"
1,WLVWIA [Peptide 116],strongest binders
2,RWIISL [Peptide 113],strongest binders
3,VFEYIK [Peptide 115],strongest binders
4,LLIWIP [Peptide 84],not stable enough to resist the washing protocol
5,WLYWIP [Peptide 85],not stable enough to resist the washing protocol
6,IFFWIK [Peptide 112],strongest binders
7,LRVIIS [Peptide 96],much larger signal than the controls

# Molecular target: prion from infected hamster brain spiked into plasma (Mesocricetus auratus, UniProt P04273)
# Sequence (P04273 23-231 limits assumed): as above
row,Substance,binding of prion to resin (prion signal in flow through)
1,"acetylated (dR)YHVYF [Peptide 83, reference compound]",bound all prion
2,"acetyl (dF)LLHPI [Peptide 75, reference compound]",did not bind prion strongly enough to retain all detectable protein
3,IQIWIF [Peptide 110],bound all prion

# Molecular target: prion from scrapie infected hamster brain (PrPsc) (Mesocricetus auratus, UniProt P04273)
# Sequence (P04273 23-231 limits assumed): as above
Substance,binding of prion to resin (prion signal in flow through),"prion binding, dependence on copper"
YVFNWY [Peptide 87],bound all prion,–
GFFFWW [Peptide 89],bound all prion,–
RYHVYF [Peptide 71],bound all prion,–
HHHPQT [Peptide 55],let prion flow through,appears to bind prion only in the absence of copper
IQIWIF [Peptide 110],bound to the column,–
acetyl (dF)LLHPI [Peptide 76],failed to bind all prion,–
